# Source: patent US6750228B1, “Aromatic sulfone hydroxamic acid metalloprotease inhibitor” (priority 1997, dated 2004)
# Counter-ions that a name gives are not always drawn. Like-named read-outs stand apart in the source and are kept apart here.
# Assays:
# Assay in all cases: biochemical
# MMP-13 = biological target: T1, MMP-13 (Homo sapiens, UniProt P45452); conditions: read-out: MMP-13 IC50
# T1 construct: made in house; host or cells: baculovirus / insect cells
# Procedure, shortened: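 Assay buffer 100 mM Tris-HCl, 100 mM NaCl, 10 mM CaCl2, pH 7.5. Activated MMP + inhibitor, 5 min RT; then methoxycoumarin peptide substrate, 4 μM final. Readout fluorescence; IC50 calculated.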
# MMP-2 = biological target: T2, MMP-2 (Homo sapiens, UniProt P08253)
# T2 construct: made in house; provided by Dr. Gregory Goldberg, Washington University
# T2 sequence (P08253 110-660): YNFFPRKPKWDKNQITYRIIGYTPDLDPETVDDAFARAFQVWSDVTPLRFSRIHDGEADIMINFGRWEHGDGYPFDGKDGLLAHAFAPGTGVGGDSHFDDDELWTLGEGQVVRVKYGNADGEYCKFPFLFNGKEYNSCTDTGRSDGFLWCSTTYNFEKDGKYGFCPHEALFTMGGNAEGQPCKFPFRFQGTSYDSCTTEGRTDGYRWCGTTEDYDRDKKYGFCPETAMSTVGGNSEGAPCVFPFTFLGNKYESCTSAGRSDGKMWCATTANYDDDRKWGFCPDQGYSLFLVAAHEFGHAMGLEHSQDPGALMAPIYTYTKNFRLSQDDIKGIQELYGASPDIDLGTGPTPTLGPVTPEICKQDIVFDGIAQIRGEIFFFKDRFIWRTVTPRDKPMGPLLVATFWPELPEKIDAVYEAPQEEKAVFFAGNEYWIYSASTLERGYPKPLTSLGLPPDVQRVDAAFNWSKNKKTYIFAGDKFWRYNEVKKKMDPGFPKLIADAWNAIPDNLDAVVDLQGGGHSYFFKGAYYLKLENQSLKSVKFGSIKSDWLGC
# Procedure, shortened: (§1)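 APMA- or trypsin-activated enzymes were preincubated with inhibitor for 5 min at room temperature, then the fluorogenic substrate MCA-Pro-Leu-Gly-Leu-Dpa-Ala-Arg-NH2 was added to a final 4 μM.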
# MMP-1 = biological target: T3, MMP-1 (Homo sapiens, UniProt P03956); conditions: read-out: MMP-1 IC50
# T3 construct: made in house; host or cells: transfected HT-1080 cells (provided by Dr. Harold Welgus, Washington University)
# T3 sequence (P03956 100-469): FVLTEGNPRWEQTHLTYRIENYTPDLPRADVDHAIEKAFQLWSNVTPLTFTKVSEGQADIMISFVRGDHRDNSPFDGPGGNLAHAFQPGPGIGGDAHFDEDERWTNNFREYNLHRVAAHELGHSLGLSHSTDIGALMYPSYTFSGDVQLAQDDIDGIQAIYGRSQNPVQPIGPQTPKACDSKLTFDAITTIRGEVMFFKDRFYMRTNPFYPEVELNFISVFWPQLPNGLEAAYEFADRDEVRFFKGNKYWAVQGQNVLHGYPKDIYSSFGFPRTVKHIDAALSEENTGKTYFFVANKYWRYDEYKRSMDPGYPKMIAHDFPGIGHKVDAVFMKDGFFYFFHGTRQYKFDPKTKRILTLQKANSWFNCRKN
# Procedure, shortened: as §1
# [1] = recombinant human MMP-13, MCA peptide substrate 4 μM, pH 7.5, room temperature
# [2] = recombinant human MMP-2, MCA peptide substrate 4 μM, pH 7.5, room temperature, read-out: MMP-2 IC50
# [3] = recombinant human MMP-1, MCA peptide substrate 4 μM, pH 7.5, room temperature
SMILES,IC50 (MMP-13; [1]) [nM],IC50 (MMP-2; [2]) [nM],IC50 (MMP-1; [3]) [nM],IC50 (MMP-13) [nM],IC50 (MMP-2; read-out: MMP-2 IC50) [nM],IC50 (MMP-1) [nM],IC50 (MMP-2; MMP-2 IC50 (nM)) [nM]
"COCCN1CCC(C(=O)NO)(S(=O)(=O)c2ccc(N3CCC(C(=O)N4CCc5ccccc54)CC3)cc2)CC1 [Example 246, 4-[[4-[4-[(2,3-Dihydro-1H-indol-1-yl)carbonyl]-1-piperidinyl]-phenyl]sulfonyl]-N-hydroxy-1-(2-methoxyethyl)-4-piperidinecarboxamide, Monohydrate]",32.7,2700,> 10000,,,,
COc1cccc(NC(=O)N2CCC(C(=O)NO)(S(=O)(=O)c3ccc(Oc4ccc(OC(F)(F)F)cc4)cc3)CC2)c1 [Example 353],0.3,< 0.1,> 10000,,,,
O=C(NO)C1(S(=O)(=O)c2ccc(N3CCC(OCc4ccc(F)cc4)CC3)cc2)CCN(C2CC2)CC1 [Example 397],4.4,70,> 10000,,,,
O=C(NO)C1(S(=O)(=O)c2ccc(N3CCCN(S(=O)(=O)c4ccccc4)CC3)cc2)CCOCC1 [Example 650],14.7,1200,> 10000,,,,
CCN(CC)CC(=O)N1CCC(C(=O)NO)(S(=O)(=O)c2ccc(N3CCC(C(=O)N4CC(C)CC(C)C4)CC3)cc2)CC1 (stereo not drawn) [Example 295],50,> 10000,> 10000,,,,
O=C(NO)C1(S(=O)(=O)c2ccc(Oc3ccc(OC(F)(F)F)cc3)cc2)CCSCC1 [Example 147],0.4,0.2,7700,,,,
CC1CC(C)CN(C(=O)C2CCN(c3ccc(S(=O)(=O)C4(C(=O)NO)CCN(C(=O)CN5CCC(C(=O)O)CC5)CC4)cc3)CC2)C1 (stereo not drawn) [Example 315],420,> 10000,> 10000,,,,
"COCCN1CCC(C(=O)NO)(S(=O)(=O)c2ccc(N3CCC(C(=O)Nc4ccc(OC(F)(F)F)cc4)CC3)cc2)CC1 [Example 248, N-Hydroxy-1-(2-methoxyethyl)-4-[[4-[4-[[[4-(trifluoromethoxy)phenyl]amino]carbonyl]-1-piperidinyl]-phenyl]sulfonyl]-4-piperidinecarboxamide, Monohydrochloride]",2.29,270,> 10000,,,,
O=C(Nc1ccc(Oc2ccccc2)cc1)OC1CCN(c2ccc(S(=O)(=O)C3(C(=O)NO)CCOCC3)cc2)CC1 [Example 519],45.4,1300,> 10000,,,,
O=C(NO)C1(S(=O)(=O)c2ccc(N3CCC(OCc4ccc(COCC5CCCCC5)cc4)CC3)cc2)CCOCC1 [Example 604],20,2500,> 10000,,,,
C[C@H]1C[C@H](C)CN(C(=O)C2CCN(c3ccc(S(=O)(=O)C4(C(=O)NO)CCN(C(=O)CCl)CC4)cc3)CC2)C1 [Example 275],,,,70,> 10000,> 10000,
CC(C)N1CCC(C(=O)NO)(S(=O)(=O)c2ccc(N3CCC(SCc4ccc(OC(F)(F)F)cc4)CC3)cc2)CC1 [Example 462],2.9,80,> 10000,,,,
Cc1ccc(C(=O)C2CCN(c3ccc(S(=O)(=O)C4(C(=O)NO)CCN(C5CC5)CC4)cc3)CC2)cc1C [Example 383],3,700,> 10000,,,,
O=C(NO)C1(S(=O)(=O)c2ccc(Oc3ccc(OC(F)(F)F)cc3)cc2)CCN(c2ccncc2)CC1 [Example 391],0.1,< 0.1,5400,,,,
O=C(NO)C1(S(=O)(=O)c2ccc(Oc3ccc(OC(F)(F)F)cc3)cc2)CCN(S(=O)(=O)c2ccccc2)CC1 [Example 194],0.3,< 0.1,> 7300,,,,
CC(C)c1ccc(Oc2ccc(S(=O)(=O)C3(C(=O)NO)CCSCC3)cc2)cc1 [Example 148],2.5,3.7,> 10000,,,,
O=C(NO)C1(S(=O)(=O)c2ccc(N3CCCCC3CCOCc3cccc(C(F)(F)F)c3)cc2)CCOCC1 (stereo not drawn) [Example 512],7700,> 10000,> 10000,,,,
O=C(NO)C1(S(=O)(=O)c2ccc(N3CC[C@@H](COCc4ccc(OC(F)(F)F)cc4)C3)cc2)CCOCC1 [Example 527],6700,9000,> 10000,,,,
CCCCOC1CCN(c2ccc(S(=O)(=O)C3(C(=O)NO)CCN(C(=O)OC(C)(C)C)CC3)cc2)CC1 [Example 442],10,211,> 10000,,,,
O=C(C1CCN(c2ccc(S(=O)(=O)C3(C(=O)NO)CCOCC3)cc2)CC1)N1CCN(c2ccc(F)cc2)CC1 [Example 25],,,,6,,> 10000,1600
C#CCN1CCC(C(=O)NO)(S(=O)(=O)c2ccc(S(=O)(=O)c3ccccc3)cc2)CC1 [Example 457],1800,2700,> 10000,,,,

# Now from value to compound, other results behind:
IC50 (MMP-13; [1]) [nM],IC50 (MMP-2; [2]) [nM],IC50 (MMP-1; [3]) [nM],SMILES,IC50 (MMP-13) [nM],IC50 (MMP-2; read-out: MMP-2 IC50) [nM],IC50 (MMP-1) [nM],IC50 (MMP-2; MMP-2 IC50 (nM)) [nM]
22,25.4,> 10000,O=C(NO)C1(S(=O)(=O)c2ccc(N3CCC(Oc4cccc5ccccc45)CC3)cc2)CCOCC1 [Example 614],,,,
2.4,190,> 10000,CCN(CC)Cc1ccc(COC2CCN(c3ccc(S(=O)(=O)C4(C(=O)NO)CCOCC4)cc3)CC2)cc1 [Example 523],,,,
9,80,> 10000,O=C(Nc1ccncn1)C1CCN(c2ccc(S(=O)(=O)C3(C(=O)NO)CCOCC3)cc2)CC1 [Example 74],,,,
12.8,140,> 10000,O=C(NO)C1(S(=O)(=O)c2ccc(N3CCC(Oc4ccccc4[N+](=O)[O-])CC3)cc2)CCOCC1 [Example 552],,,,
55.3,2900,> 10000,O=C(NO)C1(S(=O)(=O)c2ccc(N3CCC(Oc4cc(F)c([N+](=O)[O-])c(F)c4)CC3)cc2)CCOCC1 [Example 549],,,,
3,22,> 10000,O=C(NO)C1(S(=O)(=O)c2ccc(N3CCC(CCOCc4ccc(F)cc4)CC3)cc2)CCOCC1 [Example 500],,,,
18.1,325,> 10000,COc1cc(COC2CCN(c3ccc(S(=O)(=O)C4(C(=O)NO)CCOCC4)cc3)CC2)cc(OC)c1 [Example 178],,,,
5,50,> 10000,COc1ccc(S(=O)(=O)N2CCN(c3ccc(S(=O)(=O)C4(C(=O)NO)CCOCC4)cc3)CC2)cc1 [Example 678],,,,
370,7000,> 10000,CN(C)CCN(C)C(=O)C1CCN(c2ccc(S(=O)(=O)C3(C(=O)NO)CCOCC3)cc2)CC1 [Example 51],,,,
9,140,> 10000,Cc1ccc(OC2CCN(c3ccc(S(=O)(=O)C4(C(=O)NO)CCOCC4)cc3)CC2)c([N+](=O)[O-])c1 [Example 551],,,,
32.7,240,> 10000,CCOC1CCN(c2ccc(S(=O)(=O)C3(C(=O)NO)CCOCC3)cc2)CC1 [Example 166],,,,
14.5,21.1,> 10000,CC1CCN(c2ccc(S(=O)(=O)C3(C(=O)NO)CCOCC3)cc2)CC1 [Example 495],,,,
3.1,11,> 10000,O=C(NO)C1(S(=O)(=O)c2ccc(N3CCC(Oc4ccc(Cl)cc4)CC3)cc2)CCOCC1 [Example 615],,,,
2.4,200,> 10000,O=C(NO)C1(S(=O)(=O)c2ccc(N3CCC(OCc4ccc(Cl)cc4)CC3)cc2)CCOCC1 [Example 170],,,,
